Where two headings read alike, the source gives them in different places.
Tests used:
[1] = molecular target: T1, human wild type STING (WT STING) (Homo sapiens, UniProt Q86WV6, H232R); assay: 293T WT STING standard reporter assay; type: cell-based; conditions: standard reporter assay without digitonin, 7 hours, ISRE firefly luciferase
[2] = test system: peripheral blood mononuclear cell (PBMC); assay: Peripheral blood mononuclear cell assay; conditions: average of one to four donors
Procedure: Selected compounds were tested in an in vitro peripheral blood mononuclear cell (PBMC) assay. […] Serially diluted tested compounds were added to wells in 50 μl of cultivation medium and cells were incubated with the compounds for 1h at 37° C. with 5% CO2. Plates with cells were then spun 500 g for 5 minutes and the medium was removed. Cells were washed twice with the cell culture medium by the use of centrifugation and gently resuspended in 100 μl medium without compounds. After 15 hour incubation at 37° C. with 5% CO2, the cell culture medium was collected and the levels of interferon-alpha (INF-α), interferon-gamma (INF-γ) and tumor necrosis factor-alpha (TNF-α) were determined with ProcartaPlex Assays (ThermoFisher, Waltham, USA) and MAGPIX System (Merck KGaA, Darmstadt, Germany). […] Values reported are an average of runs from one to four donors.

[3] = molecular target: T1, human wild type STING (WT STING); assay: Digitonin assay using 293T wtSTING-FL reporter cells; type: cell-based; conditions: 293T wtSTING-FL cells; compounds in Digitonin buffer 30 minutes, then 5 hours in medium; ISRE firefly luciferase
[4] = molecular target: T2, AQ human STING (G230A-R293Q) (Homo sapiens, UniProt Q86WV6, G230A/H232R/R293Q); assay: Differential Scanning Fluorimetry with AQ STING; type: binding; conditions: thermal shift vs STING apoprotein; 150 μM CDN; truncated AQ STING (residues 140-343)
T2 construct: truncated human WT STING or AQ STING (amino acid residues 140-343); 8xHis (N, cleaved yes); SUMO (N, cleaved yes); made in house; host or cells: E. coli Rosetta-gami B (DE3)

[5] = 293T wtSTING-FL cells, read-out: 293T WT STING EC50
[6] = read-out: PBMC EC50 IFN-α, compounds 1h, washed, 15 hour incubation, interferon-alpha level in medium
[7] = read-out: PBMC EC50 IFN-γ, compounds 1h, washed, 15 hour incubation, interferon-gamma level in medium
[8] = read-out: PBMC EC50 TNF-α, compounds 1h, washed, 15 hour incubation, tumor necrosis factor-alpha level in medium
[9] = PBMC, read-out: PBMC EC50 IFN-α, compounds 1h, washed, 15 hour incubation, interferon-alpha level in medium
[10] = PBMC, read-out: PBMC EC50 IFN-γ, compounds 1h, washed, 15 hour incubation, interferon-gamma level in medium
[11] = PBMC, read-out: PBMC EC50 TNF-α, compounds 1h, washed, 15 hour incubation, tumor necrosis factor-alpha level in medium
[12] = 293T WT STING EC50, 293T wtSTING-FL cells

T1 sequence (Q86WV6 whole entry H232R): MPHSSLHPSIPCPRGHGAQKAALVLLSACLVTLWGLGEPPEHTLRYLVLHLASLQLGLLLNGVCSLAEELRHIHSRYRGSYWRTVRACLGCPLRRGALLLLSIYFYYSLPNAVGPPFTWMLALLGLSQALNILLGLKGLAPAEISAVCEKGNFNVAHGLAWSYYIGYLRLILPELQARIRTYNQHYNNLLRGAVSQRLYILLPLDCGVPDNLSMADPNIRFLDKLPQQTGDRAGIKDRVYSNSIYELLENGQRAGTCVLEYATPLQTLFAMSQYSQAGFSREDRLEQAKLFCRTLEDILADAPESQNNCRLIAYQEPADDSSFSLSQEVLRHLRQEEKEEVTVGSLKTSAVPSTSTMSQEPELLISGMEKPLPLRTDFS
T2 sequence (Q86WV6 140-343 G230A/H232R/R293Q): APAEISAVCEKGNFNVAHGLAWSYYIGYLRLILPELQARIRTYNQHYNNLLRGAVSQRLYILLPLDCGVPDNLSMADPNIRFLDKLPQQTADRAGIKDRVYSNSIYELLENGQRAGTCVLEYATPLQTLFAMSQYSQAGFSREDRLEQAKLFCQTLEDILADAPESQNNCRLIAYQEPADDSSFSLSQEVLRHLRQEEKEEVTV

Row | Structure (SMILES) | EC50 [1, 5] | EC50 [2, 6] | EC50 [2, 8] | EC50 [1, 12] | further results
1 | CCCCCCCCCCCC(=O)OCOP1(=O)CO[C@H]2[C@@H](F)[C@H](n3cnc4c(N)ncnc43)O[C@@H]2COP(=O)(OCOC(=O)CCCCCCCCCCC)O[C@@H]2[C@H](F)[C@@H](CO1)O[C@H]2n1cnc2c(=O)[nH]cnc21 (single isomer, unassigned) [Compound 79b] | 20 nM | 200 nM | 200 nM | – | EC50 [2, 7]: 10 nM
2 | CC(C)OC(=O)OCOP1(=O)CO[C@H]2[C@@H](F)[C@H](n3cnc4c(N)ncnc43)O[C@@H]2COP(=O)(OCOC(=O)OC(C)C)O[C@@H]2[C@H](F)[C@@H](CO1)O[C@H]2n1cnc2c(N)ncnc21 (single isomer, unassigned) [Compound 80c] | 1100 nM | > 5000 nM | > 5000 nM | – | EC50 [2, 7]: > 5000 nM
3 | Nc1ncnc2c1ncn2[C@@H]1O[C@@H]2COP(=O)(O)O[C@@H]3[C@H](F)[C@@H](COP(=O)(O)CO[C@H]2[C@H]1F)O[C@H]3n1cnc2c(=O)[nH]cnc21 [Compound 22] | 8100 nM | – | – | – | EC50 [2, 9]: 160000 nM; EC50 [2, 10]: 125000 nM; EC50 [2, 11]: 90000 nM
4 | Nc1ncnc2c1ncn2[C@@H]1O[C@@H]2COP(=O)(S)O[C@@H]3[C@H](F)[C@@H](COP(=O)(S)CO[C@H]2[C@H]1F)O[C@H]3n1cnc2c(N)ncnc21 (single isomer, unassigned) [Compound 30b] | – | – | – | – | EC50 [3]: 400 nM
5 | Nc1ncnc2c1ncn2[C@@H]1O[C@@H]2COP(=O)(S)O[C@@H]3[C@H](F)[C@@H](COP(=O)(S)CO[C@H]2[C@H]1F)O[C@H]3n1cnc2c(N)ncnc21 (single isomer, unassigned) [Compound 30c] | – | – | – | – | EC50 [3]: 600 nM
6 | CC(C)(C)C(=O)OCOP1(=O)CO[C@H]2[C@@H](F)[C@H](n3cnc4c(N)ncnc43)O[C@@H]2COP(=O)(OCOC(=O)C(C)(C)C)O[C@@H]2[C@H](F)[C@@H](CO1)O[C@H]2n1cnc2c(=O)[nH]cnc21 (single isomer, unassigned) [Compound 77a] | 600 nM | 2800 nM | 1400 nM | – | EC50 [2, 10]: 1700 nM
7 | CCCCCCCCCCCC(=O)OCOP1(=O)CO[C@H]2[C@@H](F)[C@H](n3cnc4c(N)ncnc43)O[C@@H]2COP(=O)(OCOC(=O)CCCCCCCCCCC)O[C@@H]2[C@H](F)[C@@H](CO1)O[C@H]2n1cnc2c(=O)[nH]cnc21 (single isomer, unassigned) [Compound 79c] | 3 nM | 100 nM | 90 nM | – | EC50 [2, 7]: 50 nM
8 | CCCCCCCCCCCC(=O)OCOP1(=O)CO[C@H]2[C@@H](F)[C@H](n3cnc4c(N)ncnc43)O[C@@H]2COP(=O)(OCOC(=O)CCCCCCCCCCC)O[C@@H]2[C@H](F)[C@@H](CO1)O[C@H]2n1cnc2c(=O)[nH]cnc21 (single isomer, unassigned) [Compound 79a] | 3 nM | – | – | – | EC50 [2, 9]: 200 nM; EC50 [2, 7]: 100 nM
9 | Nc1ncnc2c1ncn2[C@@H]1O[C@@H]2COP(=O)(S)O[C@@H]3[C@H](F)[C@@H](COP(=O)(S)CO[C@H]2[C@H]1F)O[C@H]3n1cnc2c(N)ncnc21 (single isomer, unassigned) [Compound 30a] | – | – | – | – | EC50 [3]: 11200 nM
10 | CC(C)(C)C(=O)OCOP1(=O)CO[C@H]2[C@@H](F)[C@H](n3cnc4c(N)ncnc43)O[C@@H]2COP(=O)(OCOC(=O)C(C)(C)C)O[C@@H]2[C@H](F)[C@@H](CO1)O[C@H]2n1cnc2c(N)ncnc21 (single isomer, unassigned) [Compound 81b] | 50 nM | 1000 nM | 1300 nM | – | EC50 [2, 7]: 1400 nM
11 | Nc1nc2c(ncn2[C@@H]2O[C@@H]3COP(=O)(O)O[C@@H]4[C@H](O)[C@@H](COP(=O)(O)O[C@@H]2[C@@H]3O)O[C@H]4n2cnc3c(N)ncnc32)c(=O)[nH]1 [2′2′-cGAMP, reference compound] | 10200 nM | – | – | – | EC50 [3]: 30 nM; DSF ΔTm AQ STING [4]: 19.4 °C
12 | CC(C)OC(=O)OCOP1(=O)CO[C@H]2[C@@H](F)[C@H](n3cnc4c(N)ncnc43)O[C@@H]2COP(=O)(OCOC(=O)OC(C)C)O[C@@H]2[C@H](F)[C@@H](CO1)O[C@H]2n1cnc2c(N)ncnc21 (single isomer, unassigned) [Compound 80a] | 4200 nM | – | – | – | EC50 [2, 9]: > 5000 nM; EC50 [2, 10]: > 5000 nM; EC50 [2, 11]: > 5000 nM
13 | CC(C)(C)C(=O)OCSP1(=O)CO[C@H]2[C@@H](F)[C@H](n3cnc4c(N)ncnc43)O[C@@H]2COP(=O)(SCOC(=O)C(C)(C)C)O[C@@H]2[C@H](F)[C@@H](CO1)O[C@H]2n1cnc2c(=O)[nH]c(N)nc21 (single isomer, unassigned) [Compound 55c] | – | – | – | 650 nM | EC50 [2, 9]: 10000 nM; EC50 [2, 10]: 3700 nM; EC50 [2, 11]: 7000 nM
14 | CC(C)(C)C(=O)OCOP1(=O)CO[C@H]2[C@@H](F)[C@H](n3cnc4c(N)ncnc43)O[C@@H]2COP(=O)(OCOC(=O)C(C)(C)C)O[C@@H]2[C@H](F)[C@@H](CO1)O[C@H]2n1cnc2c(=O)[nH]cnc21 (single isomer, unassigned) [Compound 77b] | 300 nM | 4000 nM | 3600 nM | – | EC50 [2, 7]: 3000 nM
15 | CCCCCCCCCCCC(=O)OCSP1(=O)CO[C@H]2[C@@H](F)[C@H](n3cnc4c(N)ncnc43)O[C@@H]2COP(=O)(SCOC(=O)CCCCCCCCCCC)O[C@@H]2[C@H](F)[C@@H](CO1)O[C@H]2n1cnc2c(=O)[nH]c(N)nc21 (single isomer, unassigned) [Compound 78c] | – | – | 3000 nM | 60 nM | EC50 [2, 9]: 3400 nM
16 | CCCCCCCCCCCC(=O)Oc1ccc(CSP2(=O)CO[C@H]3[C@@H](F)[C@H](n4cnc5c(N)ncnc54)O[C@@H]3COP(=O)(O)O[C@@H]3[C@H](F)[C@@H](CO2)O[C@H]3n2cnc3c(=O)[nH]c(N)nc32)cc1 (single isomer, unassigned) [Compound 47a] | – | – | – | 50 nM | –
17 | CC(C)(C)C(=O)Oc1ccc(CSP2(=O)CO[C@H]3[C@@H](F)[C@H](n4cnc5c(N)ncnc54)O[C@@H]3COP(=O)(O)O[C@@H]3[C@H](F)[C@@H](CO2)O[C@H]3n2cnc3c(=O)[nH]c(N)nc32)cc1 (single isomer, unassigned) [Compound 43a] | – | – | – | 1200 nM | –
18 | CCCCCCCCCC(=O)Oc1ccc(CSP2(=O)CO[C@H]3[C@@H](F)[C@H](n4cnc5c(N)ncnc54)O[C@@H]3COP(=O)(O)O[C@@H]3[C@H](F)[C@@H](CO2)O[C@H]3n2cnc3c(=O)[nH]c(N)nc32)cc1 (single isomer, unassigned) [Compound 46a] | – | – | – | 60 nM | –
19 | CC(C)(C)C(=O)OCOP1(=O)CO[C@H]2[C@@H](F)[C@H](n3cnc4c(N)ncnc43)O[C@@H]2COP(=O)(OCOC(=O)C(C)(C)C)O[C@@H]2[C@H](F)[C@@H](CO1)O[C@H]2n1cnc2c(N)ncnc21 (single isomer, unassigned) [Compound 81a] | 50 nM | – | – | – | EC50 [2, 9]: 1400 nM; EC50 [2, 10]: 1700 nM; EC50 [2, 11]: 1600 nM
20 | CC(C)(C)C(=O)OCOP1(=O)CO[C@H]2[C@@H](F)[C@H](n3cnc4c(N)ncnc43)O[C@@H]2COP(=O)(OCOC(=O)C(C)(C)C)O[C@@H]2[C@H](F)[C@@H](CO1)O[C@H]2n1cnc2c(=O)[nH]cnc21 (single isomer, unassigned) [Compound 77c] | 200 nM | 700 nM | 3700 nM | – | EC50 [2, 7]: 2300 nM
21 | CCCCCCCCCCCC(=O)OCSP1(=O)CO[C@H]2[C@@H](F)[C@H](n3cnc4c(N)ncnc43)O[C@@H]2COP(=O)(SCOC(=O)CCCCCCCCCCC)O[C@@H]2[C@H](F)[C@@H](CO1)O[C@H]2n1cnc2c(=O)[nH]c(N)nc21 (single isomer, unassigned) [Compound 78d] | – | 3400 nM | 800 nM | 40 nM | –
22 | CCCCCCCCCCCC(=O)OCSP1(=O)CO[C@H]2[C@@H](F)[C@H](n3cnc4c(N)ncnc43)O[C@@H]2COP(=O)(O)O[C@@H]2[C@H](F)[C@@H](CO1)O[C@H]2n1cnc2c(=O)[nH]c(N)nc21 (single isomer, unassigned) [Compound 76a] | – | – | – | 300 nM | –
23 | CCCCCCCC(=O)Oc1ccc(CSP2(=O)CO[C@H]3[C@@H](F)[C@H](n4cnc5c(N)ncnc54)O[C@@H]3COP(=O)(O)O[C@@H]3[C@H](F)[C@@H](CO2)O[C@H]3n2cnc3c(=O)[nH]c(N)nc32)cc1 (single isomer, unassigned) [Compound 45b] | – | – | – | 150 nM | –
24 | CC(C)OC(=O)OCOP1(=O)CO[C@H]2[C@@H](F)[C@H](n3cnc4c(N)ncnc43)O[C@@H]2COP(=O)(OCOC(=O)OC(C)C)O[C@@H]2[C@H](F)[C@@H](CO1)O[C@H]2n1cnc2c(N)ncnc21 (stereo partly drawn) [Compound 80b, {[(1S,6R,8R,9R,10R,16R,18R,19R)-8,18-bis(6-amino-9H-purin-9-yl)-9,19-difluoro-3,13-dioxo-13-({[(propan-2-yloxy)carbonyl]oxy}methoxy)-2,4,7,11,14,17-hexaoxa-3λ^5,13λ^5-diphosphatricyclo[14.2.1.0^6,10]nonadecan-3-yl]oxy}methyl propan-2-yl carbonate] | 900 nM | – | – | – | EC50 [2, 9]: 1300 nM; EC50 [2, 10]: 1600 nM; EC50 [2, 11]: 1500 nM

Source: patent publication US12318403B2, “2′3′-cyclic dinucleotides and prodrugs thereof” (INSTITUTE OF ORGANIC CHEMISTRY AND BIOCHEMISTRY ASCR, V.V.I., priority 2019, dated 2025)
